Values of other authors as cited in article PMC5368910 (BMC Pharmacology & Toxicology, 2017).

Test system: Clostridium difficile-associated diarrhea (CDAD)
Details: stated for vancomycin and metronidazole treatments together; cited from earlier work
Source text: Despite having a clinical response rate of ~73 to 85%, vancomycin and metronidazole treatments are associated with recurrent CDAD in up to 45% of patients. Aggressive vancomycin and metronidazole treatment is also associated with disruption of the intestinal microbiota and can promote colonization by vancomycin-resistant enterococci, highlighting the need for novel treatment options. An ideal agent for the treatment of CDAD should be associated with low levels of systemic absorption, resulting in high concentrations of the drug in the colon, combined with a narrow spect ...

SMILES: Cc1ncc([N+](=O)[O-])n1CCO [metronidazole]
- recurrent CDAD, share of patients: up to 45%
